This test has as its system infants at 24 months. Kind of test: Associations of maternal plasma carotenoids concentrations with Bayley Scales of Infant and Toddler Development-III (BSID-III) scores, GUSTO cohort, linear regression. In kind it is in vivo, human. The conditions noted are these: for Cognitive β (95% CI) / Expressive Language β (95% CI) / Fine motor β (95% CI) / Gross motor β (95% CI) / Receptive language β (95% CI): per SD increment in log-transformed maternal plasma concentration. How it is done:
The Bayley Scales of Infant and Toddler Development, 3rd edition (BSID-III) 2006 was administered to infants at 24 (±1) months, in their homes when infants were likely to be alert. This is a standardized test that assesses development of children 1-42 months of age in the following domains: cognitive, receptive and expressive language, and fine and gross motor skills. The test was administered in English, Chinese, Malay or Tamil languages depending on the child's dominant language.
Data for the present analysis were from the Growing Up in Singapore Towards healthy Outcomes (GUSTO) study a prospective mother-offspring cohort in Singapore (34). Detailed descriptions of the GUSTO study have been published Soh, et al 2014 Int. J Epidemiology 43(5):1401-9, which is hereby incorporated by reference. In brief, pregnant women (≥18 years) in their first trimester (<14 weeks) were recruited from the National University Hospital (NUH) and KK Women's and Children's Hospital (KKH) between June 2009 and September 2010. To be eligible for the study, the pregnant person had to: 1) be a Singapore citizen or permanent residents of Chinese, Malay or Indian ethnicity with homogenous parental ethnic background; 2) have an intention to deliver in the two hospitals and to reside in Singapore for the next five years; and 3) consent to donate birth tissues at delivery. Women receiving chemotherapy, psychotropic drugs or were diagnosed with type-1 diabetes were not eligible to participate. The GUSTO study has received ethical approval from the Institutional Review Board of NUH and KKH, and all procedures were conducted according to the guidelines laid down in the Declaration of Helsinki. Written informed consent was obtained from all participants at study recruitment.
A total of 1247 pregnant women participated at baseline. The present analysis included pregnant women who had singleton live births (n=1237), in whom plasma carotenoids concentrations were analyzed (n=701), and their offspring completed neurocognitive assessments at 24 months (n=361).
Administration and scoring was performed by research coordinators trained by the head psychologist from KKH in accordance to the manual. Raw test scores were used as age-specific norms were not available for our population.
Maternal plasma concentrations of individual carotenoids were summarized according to maternal and infant characteristics for the 419 mother-offspring pairs with data for the cognitive test. Differences in concentrations between groups were compared using non-parametric analyses Wilcoxon rank-sum and Kruskal-Wallis tests, as data were not normally distributed. Bonferroni post hoc analysis was performed to identify groups which differed if the Kruskal Wallis test was significant. The values for individual maternal plasma carotenoids were log-transformed, then converted to standard deviation scores (SDS) for easier interpretation. The BSID-III raw scores were also converted to SDS to facilitate comparison across the cognitive tests and domain scales.
Associations of each maternal plasma carotenoids with each BSID-III scale in the children were examined using linear regressions. Several statistical models were employed: Model 1 basic model with adjustment for infant's exact age at cognitive testing; Model 2 additional adjustment for maternal age, ethnicity, education, pre-pregnancy BMI, antenatal depression and anxiety levels (potential confounders). We considered Model 2 to be the main model. Further adjustment for infant gestational age, birth weight and breastfeeding duration was performed to examine if any associations found were acting through these factors (Model 3).
Missing data for covariates were imputed using multiple imputation technique with chained equations (20 times) for the following confounding variables: n=3 maternal education, n=7 EPDS, n=21 STAI, n=40 maternal pre-pregnancy BMI, n=5 infant birthweight and n=10 breastfeeding duration. […]

Where [1] appears, read: Model 1 (adjusted for infant's age at testing), BSID-III at 24 months, n = 361.
The mark [2] stands for this setting: Model 1, BSID-III at 24 months, n = 361.
Setting [3] is: Model 2 (Model 1 plus maternal age, ethnicity, education, pre-pregnancy BMI, parity, antenatal depression and anxiety), 24 months.
[4] abbreviates: Model 2 (adjusted for confounders), 24 months.
Setting [5] is: Model 3 (Model 2 plus infant gestational age, birth weight, breastfeeding duration), 24 months.
Where [6] appears, read: Model 3 (also adjusted for potential mediators), 24 months.

Molecules are shown by their SMILES.

`CC1=CCCC(C)(C)C1/C=C/C(C)=C/C=C/C(C)=C/C=C/C=C(C)/C=C/C=C(C)/C=C/C1=C(C)CCCC1(C)C` (stereo not drawn) [α-carotene]: the “Cognitive β (95% CI)” value runs as follows: under setting [1], 0.06 SD; under setting [3], −0.01 SD; under setting [5], −0.04 SD. In addition, the “Expressive Language β (95% CI)” value is, setting by setting: under setting [2], 0.10 SD; under setting [4], 0.06 SD; under setting [6], 0.02 SD. The “Fine motor β (95% CI)” value stood at 0.08 SD under setting [2], 0.06 SD under setting [4] and 0.05 SD under setting [6]. The “Gross motor β (95% CI)” value runs as follows: under setting [2], 0.08 SD; under setting [4], 0.06 SD; under setting [6], 0.04 SD. Further, the “Receptive language β (95% CI)” value is on record as 0.09 SD under setting [2], 0.002 SD under setting [4] and −0.04 SD under setting [6].

Consider `CC1=C(/C=C/C(C)=C/C=C/C(C)=C/C=C/C=C(C)/C=C/C=C(C)/C=C/C2=C(C)CCCC2(C)C)C(C)(C)CCC1` [β-carotene], for which the “Cognitive β (95% CI)” value runs as follows: under setting [1], 0.22 SD; under setting [3], 0.16 SD; under setting [5], 0.13 SD. In addition, the “Expressive Language β (95% CI)” value by setting is: under setting [2], 0.18 SD; under setting [4], 0.14 SD; under setting [6], 0.10 SD. Also, the “Fine motor β (95% CI)” value under setting [2] amounted to 0.14 SD, the “Fine motor β (95% CI)” value under setting [4] amounted to 0.12 SD and the “Fine motor β (95% CI)” value under setting [6] turned out to be 0.10 SD. For the same compound, the “Gross motor β (95% CI)” value under setting [2] is recorded as 0.15 SD, the “Gross motor β (95% CI)” value under setting [4] was determined as 0.14 SD and the “Gross motor β (95% CI)” value under setting [6] was found to be 0.12 SD. Also, the “Receptive language β (95% CI)” value is 0.23 SD under setting [2], 0.15 SD under setting [4] and 0.11 SD under setting [6].

Take `CC1=C(/C=C/C(C)=C/C=C/C(C)=C/C=C/C=C(C)/C=C/C=C(C)/C=C/C2=C(C)C[C@@H](O)CC2(C)C)C(C)(C)C[C@H](O)C1` [Zeaxanthin, zeaxanthin]: the “Cognitive β (95% CI)” value by setting is: under setting [1], 0.01 SD; under setting [3], 0.05 SD; under setting [5], 0.05 SD. In addition, the “Expressive Language β (95% CI)” value by setting is: under setting [2], −0.09 SD; under setting [4], −0.05 SD; under setting [6], −0.04 SD. The “Fine motor β (95% CI)” value is given as 0.04 SD under setting [2], 0.05 SD under setting [4] and 0.05 SD under setting [6]. In addition, the “Gross motor β (95% CI)” value under setting [2] was found to be 0.02 SD, the “Gross motor β (95% CI)” value under setting [4] is recorded as 0.04 SD and the “Gross motor β (95% CI)” value under setting [6] is reported as 0.05 SD. The “Receptive language β (95% CI)” value by setting is: under setting [2], −0.10 SD; under setting [4], −0.05 SD; under setting [6], −0.04 SD.

Consider `CC(C)=CCC/C(C)=C/C=C/C(C)=C/C=C/C(C)=C/C=C/C=C(C)/C=C/C=C(C)/C=C/C=C(\C)CCC=C(C)C` [Lycopene, lycopene], for which the “association of higher maternal concentrations with performance in expressive language” value (24 months, result in words) is listed as “associated with better performance”. Further, the “association of higher maternal concentrations with receptive language” value (24 months, result in words) is recorded as “not with receptive language”. Also, the “Cognitive β (95% CI)” value runs as follows: under setting [1], 0.14 SD; under setting [3], 0.12 SD; under setting [5], 0.11 SD. Also, the “Expressive Language β (95% CI)” value by setting is: under setting [2], 0.15 SD; under setting [4], 0.15 SD; (Model 2 (adjusted for confounders), 24 months, listed as lycopene) 0.15 SD; under setting [6], 0.14 SD. In addition, the “Fine motor β (95% CI)” value under setting [2] is 0.04 SD, the “Fine motor β (95% CI)” value under setting [4] came to 0.03 SD and the “Fine motor β (95% CI)” value under setting [6] was 0.02 SD. The “Gross motor β (95% CI)” value is, setting by setting: under setting [2], 0.09 SD; under setting [4], 0.08 SD; under setting [6], 0.09 SD. Also, the “Receptive language β (95% CI)” value was determined as 0.11 SD under setting [2], 0.09 SD under setting [4] and 0.07 SD under setting [6].

Regarding `CC1=C(/C=C/C(C)=C/C=C/C(C)=C/C=C/C=C(C)/C=C/C=C(C)/C=C/C2=C(C)C[C@@H](O)CC2(C)C)C(C)(C)CCC1` [β-cryptoxanthin], the “association of higher maternal concentrations with cognitive development in infants” value (BSID-III scales at 24 months, after adjustment for confounders, result in words) is on record as “most consistently associated with better cognitive development”. For the same compound, the “Cognitive β (95% CI)” value under setting [1] amounted to 0.21 SD, the “Cognitive β (95% CI)” value under setting [3] was 0.18 SD and the “Cognitive β (95% CI)” value under setting [5] came to 0.18 SD. Further, the “Expressive Language β (95% CI)” value is on record as 0.15 SD under setting [2], 0.13 SD under setting [4] and 0.12 SD under setting [6]. Moreover, the “Fine motor β (95% CI)” value under setting [2] was 0.17 SD, the “Fine motor β (95% CI)” value under setting [4] is given as 0.16 SD and the “Fine motor β (95% CI)” value under setting [6] worked out at 0.15 SD. Further, the “Gross motor β (95% CI)” value came to 0.17 SD under setting [2], 0.16 SD under setting [4] and 0.15 SD under setting [6]. Besides, the “Receptive language β (95% CI)” value came out at 0.21 SD under setting [2], 0.17 SD under setting [4] and 0.16 SD under setting [6].

Take `CC1=C[C@H](O)CC(C)(C)[C@H]1/C=C/C(C)=C/C=C/C(C)=C/C=C/C=C(C)/C=C/C=C(C)/C=C/C1=C(C)C[C@@H](O)CC1(C)C` [Lutein, lutein]: the “Cognitive β (95% CI)” value by setting is: under setting [1], 0.03 SD; under setting [3], −0.08 SD; under setting [5], −0.11 SD. For the same compound, the “Expressive Language β (95% CI)” value runs as follows: under setting [2], 0.004 SD; under setting [4], −0.09 SD; under setting [6], −0.12 SD. In addition, the “Fine motor β (95% CI)” value is, setting by setting: under setting [2], 0.01 SD; under setting [4], 0.02 SD; under setting [6], −0.04 SD. In addition, the “Gross motor β (95% CI)” value under setting [2] stood at 0.03 SD, the “Gross motor β (95% CI)” value under setting [4] is on record as −0.02 SD and the “Gross motor β (95% CI)” value under setting [6] is recorded as −0.04 SD. In addition, the “Receptive language β (95% CI)” value under setting [2] is recorded as 0.08 SD, the “Receptive language β (95% CI)” value under setting [4] was −0.04 SD and the “Receptive language β (95% CI)” value under setting [6] is −0.08 SD.

The values are drawn from patent publication US20220079888A1, “PRE-NATAL BETA-CRYPTOXANTHIN BENEFITS CHILDREN” (AGENCY FOR SCIENCE, TECHNOLOGY AND RESEARCH (A*STAR), priority 2019, published 2022).
